Source: patent publication US20220193081A1 (Ellamed IP & Services PTE. LTD., priority 2019, published 2022)

How the values were obtained:
Format in all cases: physicochemical
[1] = HPLC assay on storage of sildenafil citrate with equal concentration of sucralose in pH adjusted 50% ethanol (Example 2); settings: for concentration of sildenafil by HPLC / Impurity B / Impurity D / sildenafil assay: 21 mg/ml; for Impurity B / Impurity D / sildenafil assay: 25° C., Day 285
Procedure: At room temperature, a phosphate buffer was prepared by weighing 3.9 g of NaH2PO4.2H2O into a 500 mL volumetric flask and adding approximately 300 mL of purified water until the phosphate fully dissolved. The pH was then adjusted to 7 with the introduction of NaOH and dilute to the requisite volume by the further addition of purified water.
A 50% ethanol mixture was prepared by introducing either purified water, taken from a MilliQ™ unit or phosphate buffer, to equivalent volumes of Ph.Eur. grade absolute alcohol. The pH of the resultant mixture was then adjusted by using either NaOH 1N solutions and/or Sodium Citrate 1N solutions to reach predetermined pH values.
Samples of sucralose were then dissolved in the pH adjusted 50% ethanol, whilst stirred with a magnetic stirrer and a needle, to a predetermined concentration. […] After preparation, the solutions were each filtered through PDVF 0.22 micro filter of 13 mm in size and placed in polypropylene containers of adequate volume.
Before being placed on storage, and at time points 7 and 42 days, the concentration of sildenafil in the mixture was assayed using HPLC. The samples were then stored at either −20° C., 2-8° C. or 25° C. for periods of up to 42 days. Periodically, the samples were visually inspected for evidence of precipitation or crystallization. […]
The samples of 21 mg/ml at a pH of 5.6 were maintained in stability testing at 25° C. for a total of 285 days.

[2] = Visual inspection on storage of sildenafil citrate in buffered 60% aqueous ethanol (Example 4); settings: pH 5.5, NaOH
Procedure: (§1) Before being placed on storage, and at time points 7 and 42 days, the concentration of sildenafil in the mixtures were assayed using HPLC. The samples were then stored at either −20° C., 2-8° C. or 25° C. for periods of up to 42 days. Periodically, the samples were visually inspected for evidence of crystallization.

[3] = HPLC assay on storage of sildenafil citrate in buffered 60% aqueous ethanol (Example 4); settings: pH 5.5, NaOH
Procedure: as §1

For `CCCc1nn(C)c2c(=O)nc(-c3cc(S(=O)(=O)N4CCN(C)CC4)ccc3OCC)[nH]c12.O=C(O)CC(O)(CC(=O)O)C(=O)O` [sildenafil citrate, 1-[[3-(4,7-Dihydro-1-methyl-7-oxo-3-propyl-1H-pyrazolo[4,3-d]pyrimidin-5-yl)-4-ethoxyphenyl]sulfonyl]-4-methylpiperazine citrate salt], the “concentration of sildenafil by HPLC” value ([1]; pH 5.29, NaOH, 50% ethanol/phosphate buffer, Day 0) was 20940 µg/mL, the “concentration of sildenafil by HPLC” value ([1]; pH 5.5, NaOH, 2-8 ° C., Day 7) was 20860 µg/mL and the “concentration of sildenafil by HPLC” value ([1]; pH 5.5, NaOH, 25 ° C., Day 7) was 20970 µg/mL. The “concentration of sildenafil by HPLC” value ([1]; pH 5.5, NaOH, Day 0) was 21110 µg/mL, the “concentration of sildenafil by HPLC” value ([1]; pH 5.5, Sodium Citrate, 2-8 ° C., Day 7) was 21140 µg/mL and the “concentration of sildenafil by HPLC” value ([1]; pH 5.5, Sodium Citrate, 25 ° C., Day 7) was 21220 µg/mL. The “concentration of sildenafil by HPLC” value ([1]; pH 5.5, Sodium Citrate, Day 0) was 21320 µg/mL, the “concentration of sildenafil by HPLC” value ([1]; pH 5.6, NaOH, 2-8 ° C., Day 7) was 21040 µg/mL and the “concentration of sildenafil by HPLC” value ([1]; pH 5.6, NaOH, 2-8 ° C., Day 42) was 21430 µg/mL. The “concentration of sildenafil by HPLC” value ([1]; pH 5.6, NaOH, 25 ° C., Day 7) was 21020 µg/mL, the “concentration of sildenafil by HPLC” value ([1]; pH 5.6, NaOH, 25 ° C., Day 42) was 21320 µg/mL and the “Impurity B” value ([1]; pH 5.6, NaOH) was 0.00. The “Impurity D” value ([1]; pH 5.6, NaOH) was 0.02, the “sildenafil assay” value ([1]; pH 5.6, NaOH) was 21.16 and the “concentration of sildenafil by HPLC” value ([1]; pH 5.6, NaOH, 50% ethanol/phosphate buffer, 2-8 ° C., Day 7) was 20930 µg/mL. For the same compound, the “concentration of sildenafil by HPLC” value ([1]; pH 5.6, NaOH, 50% ethanol/phosphate buffer, 25 ° C., Day 7) was 20990 µg/mL, the “concentration of sildenafil by HPLC” value ([1]; pH 5.6, NaOH, 50% ethanol/phosphate buffer, Day 0) was 20970 µg/mL and the “concentration of sildenafil by HPLC” value ([1]; pH 5.6, NaOH, Day 0) was 21200 µg/mL. The “concentration of sildenafil by HPLC” value ([1]; pH 5.6, Sodium Citrate, 2-8 ° C., Day 7) was 20990 µg/mL, the “concentration of sildenafil by HPLC” value ([1]; pH 5.6, Sodium Citrate, 2-8 ° C., Day 42) was 21410 µg/mL and the “concentration of sildenafil by HPLC” value ([1]; pH 5.6, Sodium Citrate, 25 ° C., Day 7) was 21060 µg/mL. For the same compound, the “concentration of sildenafil by HPLC” value ([1]; pH 5.6, Sodium Citrate, 25 ° C., Day 42) was 21270 µg/mL, the “Impurity B” value ([1]; pH 5.6, Sodium Citrate) was 0.01 and the “Impurity D” value ([1]; pH 5.6, Sodium Citrate) was 0.02. The “sildenafil assay” value ([1]; pH 5.6, Sodium Citrate) was 21.14, the “concentration of sildenafil by HPLC” value ([1]; pH 5.6, Sodium Citrate, Day 0) was 21260 µg/mL and the “concentration of sildenafil by HPLC” value ([1]; pH 5.8, NaOH, 2-8 ° C., Day 7) was 20950 µg/mL. For the same compound, the “concentration of sildenafil by HPLC” value ([1]; pH 5.8, NaOH, 25 ° C., Day 7) was 21730 µg/mL, the “concentration of sildenafil by HPLC” value ([1]; pH 5.8, NaOH, Day 0) was 21150 µg/mL and the “concentration of sildenafil by HPLC” value ([1]; pH 5.8, Sodium Citrate, 2-8 ° C., Day 7) was 20960 µg/mL. The “concentration of sildenafil by HPLC” value ([1]; pH 5.8, Sodium Citrate, 25 ° C., Day 7) was 21070 µg/mL, the “concentration of sildenafil by HPLC” value ([1]; pH 5.8, Sodium Citrate, Day 0) was 21080 µg/mL and the “concentration of sildenafil by HPLC” value ([1]; pH 6.01, NaOH, 50% ethanol/phosphate buffer, 2-8 ° C., Day 7) was 16220 µg/mL. For the same compound, the “concentration of sildenafil by HPLC” value ([1]; pH 6.01, NaOH, 50% ethanol/phosphate buffer, 25 ° C., Day 7) was 18020 µg/mL, the “concentration of sildenafil by HPLC” value ([1]; pH 6.01, NaOH, 50% ethanol/phosphate buffer, Day 0) was 20770 µg/mL and the breakdown products ([1]; any of the conditions tested, up to 42 days) was “No breakdown products were identified”. For the same compound, the “visual inspection for crystallization” value ([2]; 18 mg/ml, with sucralose, 2-8° C.) was “Prec”, the “visual inspection for crystallization” value ([2]; 18 mg/ml, with sucralose, −20° C.) was “Prec” and the “visual inspection for crystallization” value ([2]; 18 mg/ml, without sucralose, 2-8° C.) was “Prec”. The “visual inspection for crystallization” value ([2]; 18 mg/ml, without sucralose, −20° C.) was “Prec”, the “visual inspection for crystallization” value ([2]; 21 mg/ml, without sucralose, 2-8° C.) was “Prec” and the “visual inspection for crystallization” value ([2]; 21 mg/ml, without sucralose, −20° C.) was “Prec”. The “concentration of sildenafil by HPLC” value ([3]; 18 mg/ml, with sucralose, 2-8 ° C., Day 7) was 18550 µg/mL, the “concentration of sildenafil by HPLC” value ([3]; 18 mg/ml, with sucralose, 2-8 ° C., Day 42) was 15240 µg/mL and the “concentration of sildenafil by HPLC” value ([3]; 18 mg/ml, with sucralose, 25 ° C., Day 7) was 18000 µg/mL. For the same compound, the “concentration of sildenafil by HPLC” value ([3]; 18 mg/ml, with sucralose, 25 ° C., Day 42) was 17940 µg/mL, the “concentration of sildenafil by HPLC” value ([3]; 18 mg/ml, with sucralose, Day 0) was 17560 µg/mL and the “concentration of sildenafil by HPLC” value ([3]; 18 mg/ml, without sucralose, 2-8 ° C., Day 7) was 18330 µg/mL. The “concentration of sildenafil by HPLC” value ([3]; 18 mg/ml, without sucralose, 2-8 ° C., Day 42) was 15230 µg/mL, the “concentration of sildenafil by HPLC” value ([3]; 18 mg/ml, without sucralose, 25 ° C., Day 7) was 18080 µg/mL and the “concentration of sildenafil by HPLC” value ([3]; 18 mg/ml, without sucralose, 25 ° C., Day 42) was 17190 µg/mL. For the same compound, the “concentration of sildenafil by HPLC” value ([3]; 18 mg/ml, without sucralose, Day 0) was 17420 µg/mL, the “concentration of sildenafil by HPLC” value ([3]; 21 mg/ml, without sucralose, 2-8 ° C., Day 7) was 22110 µg/mL and the “concentration of sildenafil by HPLC” value ([3]; 21 mg/ml, without sucralose, 2-8 ° C., Day 42) was 13780 µg/mL. For the same compound, the “concentration of sildenafil by HPLC” value ([3]; 21 mg/ml, without sucralose, 25 ° C., Day 7) was 20400 µg/mL, the “concentration of sildenafil by HPLC” value ([3]; 21 mg/ml, without sucralose, 25 ° C., Day 42) was 19610 µg/mL and the “concentration of sildenafil by HPLC” value ([3]; 21 mg/ml, without sucralose, Day 0) was 20520 µg/mL.
